Where two headings read alike, the source gives them in different places.
What was measured:
Assay in all cases: 3H-TdR (3H-thymidine) incorporation assay at 72 hr
CCRF-CEM = type: cell-based
Protocol: (§1) Table of IC50 Values (μM) for Controls
(§2) Exposition of 24 hr to drug, wash, incubated for another 48 hr (total of 72 hr assay)
(§3) (3H-Thymidine Incorporation Assay)

CEM/dCK- = type: cell-based; settings: for Factor* (Resistance Factor = Ratio of dCK- on Wild-type CCRF-CEM): ratio of IC50 CEM/dCK- to CCRF-CEM, 24 h
Protocol: as §1, §2, §3

SF-268 = type: cell-based, Human
H-460 = type: cell-based, Human
MCF-7 = type: cell-based, Human
[1] = Homo sapiens, CCRF-CEM, read-out: IC50 CCRF-CEM 24 h, 24 h drug exposure, wash, another 48 hr, 3H-TdR incorporation at 72 hr
[2] = Homo sapiens, CCRF-CEM, read-out: IC50 CEM/dCK- 24 h, 24 h drug exposure, wash, another 48 hr, deoxycytidine kinase-deficient CCRF-CEM
[3] = Homo sapiens, SF-268, read-out: IC50 SF-268 24 h, 24 h drug exposure, wash, another 48 hr, 3H-TdR incorporation at 72 hr
[4] = Homo sapiens, NCI-H460, read-out: IC50 H-460 24 h, 24 h drug exposure, wash, another 48 hr, 3H-TdR incorporation at 72 hr
[5] = Homo sapiens, MCF7, read-out: IC50 MCF-7 24 h, 24 h drug exposure, wash, another 48 hr, 3H-TdR incorporation at 72 hr
[6] = read-out: IC50 CCRF-CEM 24 h, 24 h drug exposure, wash, another 48 hr, 3H-TdR incorporation at 72 hr
[7] = read-out: IC50 SF-268 24 h, 24 h drug exposure, wash, another 48 hr, 3H-TdR incorporation at 72 hr
[8] = read-out: IC50 H-460 24 h, 24 h drug exposure, wash, another 48 hr, 3H-TdR incorporation at 72 hr
[9] = Homo sapiens, CCRF-CEM, read-out: IC50 CCRF-CEM 24 h
[10] = Homo sapiens, CCRF-CEM, read-out: IC50 CEM/dCK- 24 h
[11] = Homo sapiens, SF-268, read-out: IC50 SF-268 24 h
[12] = Homo sapiens, NCI-H460, read-out: IC50 H-460 24 h
[13] = Homo sapiens, MCF7, read-out: IC50 MCF-7 24 h

Structure (SMILES)	IC50 (CCRF-CEM; [1]) [nM]	IC50 (CEM/dCK-; [2]) [nM]	IC50 (SF-268; [3]) [nM]	IC50 (H-460; [4]) [nM]	IC50 (MCF-7; [5]) [nM]	IC50 (CCRF-CEM; [6]) [nM]	IC50 (SF-268; [7]) [nM]	IC50 (H-460; [8]) [nM]	IC50 (CEM/dCK-; read-out: IC50 CEM/dCK- 24 h, 24 h drug exposure, wash, another 48 hr, deoxycytidine kinase-deficient CCRF-CEM) [nM]	Factor* (Resistance Factor = Ratio of dCK- on Wild-type CCRF-CEM) (CEM/dCK-)	IC50 (H-460; read-out: IC50 H-460 24 h, 24 h drug exposure, wash, another 48 hr, 3H-TdR incorporation at 72 hr, bis trifluoroacetate salt) [nM]	IC50 (MCF-7; read-out: IC50 MCF-7 24 h, 24 h drug exposure, wash, another 48 hr, 3H-TdR incorporation at 72 hr, bis trifluoroacetate salt) [nM]	IC50 (CCRF-CEM; [9]) [nM]	IC50 (CEM/dCK-; [10]) [nM]	IC50 (SF-268; [11]) [nM]	IC50 (H-460; [12]) [nM]	IC50 (MCF-7; [13]) [nM]
Nc1ccn([C@@H]2CO[C@H](COC(=O)CCCCCNCc3ccccc3)O2)c(=O)n1.O=C(O)C(F)(F)F.O=C(O)C(F)(F)F (stereo in doubt) [Compound 83, 6-Benzylamino-hexanoic acid 4-(4-amino-2-oxo-2H-pyrimidin-1-yl)-[1,3]dioxolan-2-ylmethyl ester bis trifluoroacetate salt]	22	> 100000	260							4,545	54	83					
CC(=O)OCC1OC2OC(C)(OC[C@H]3OC[C@@H](n4ccc(NC(=O)OCc5ccccc5)nc4=O)O3)OC2C(OC(C)=O)C1OC(C)=O (stereo in doubt) [Compound 148, Acetic acid 6-acetoxy-5-acetoxymethyl-2-[4-(4-benzyloxycarbonylamino-2-oxo-2H-pyrimidin-1-yl)-[1,3]dioxolan-2-ylmethoxy]-2-methyl-tetrahydro-[1,3]dioxolo[4,5-b]pyran-7-yl ester]	6300	24000	9900	36000	6300					4							
CC(=O)OCC1OC2OC(C)(OC[C@H]3OC[C@@H](n4ccc(N)nc4=O)O3)OC2C(OC(C)=O)C1OC(C)=O (stereo in doubt) [Compound 151, Acetic acid 6-acetoxy-5-acetoxymethyl-2-[4-(4-amino-2-oxo-2H-pyrimidin-1-yl)-[1,3]dioxolan-2-ylmethoxy]-2-methyl-tetrahydro-[1,3]dioxolo [4,5-b]pyran-7-yl ester]	590	> 100000	4400	9700	8300					>169							
COC(OC)OC[C@H]1OC[C@@H](n2ccc(N)nc2=O)O1 [Compound 38, 4-AMINO-1-(2- DIMETHOXYMETHOXYMETHYL- [1,3]DIOXOLAN-4-YL)-1H- PYRIMIDIN-2-ONE]	110	> 100000	900	340	1000					909							
CCOC(OCC)OC[C@H]1OC[C@@H](n2ccc(N)nc2=O)O1 [Compound 39, 4-AMINO-1-(2- DIETHOXYMETHOXYMETHYL- [1,3]DIOXOLAN-4-YL)-1H- PYRIMIDIN-2-ONE]	47	> 100000	320	160		62	390	120									
Nc1ccn([C@@H]2CO[C@H](COC3OCCO3)O2)c(=O)n1 [Compound 40, 4-AMINO-1-[2- ([1,3]DIOXOLAN-2- YLOXYMETHYL)- [1,3]DIOXOLAN-4-YL]-1H- PYRIMIDIN-2-ONE]	89	> 100000	900	320	70					1,123							
O=C(Nc1ccn([C@@H]2CO[C@H](COC(=O)Oc3ccccc3)O2)c(=O)n1)Oc1ccccc1 [Compound 43]										1,000,000			< 0.1	> 100000	29	10	4.1
O=C(Nc1ccn([C@@H]2CO[C@H](CO)O2)c(=O)n1)Oc1ccccc1 [Compound 44, [1-(2-HYDROXYMETHYL- [1,3]DIOXOLAN-4-YL)-2- OXO-1,2-DIHYDRO- […]-4-YL]- CARBAMIC ACID PHENYL ESTER]										1,300			77	> 100000	890	370	970
CC(C)OC(=O)OC[C@H]1OC[C@@H](n2ccc(N)nc2=O)O1.O=C(O)C(F)(F)F [Compound 67, CARBONIC ACID 4-(4- AMINO-2-OXO-2H- PYRIMIDIN-1-YL)- [1,3]DIOXOLAN-2- YLMETHYL ESTER ISOPROPYL ESTER TRIFLUOROACETATE SALT]	180	> 100000	400	82						556							

Now from value to molecule, other results behind:

IC50 (CCRF-CEM; [1]) [nM]	IC50 (CEM/dCK-; [2]) [nM]	IC50 (SF-268; [3]) [nM]	IC50 (H-460; [4]) [nM]	IC50 (MCF-7; [5]) [nM]	IC50 (CCRF-CEM; [6]) [nM]	IC50 (SF-268; [7]) [nM]	IC50 (H-460; [8]) [nM]	IC50 (CEM/dCK-; read-out: IC50 CEM/dCK- 24 h, 24 h drug exposure, wash, another 48 hr, deoxycytidine kinase-deficient CCRF-CEM) [nM]	Structure (SMILES)	Factor* (Resistance Factor = Ratio of dCK- on Wild-type CCRF-CEM) (CEM/dCK-)	IC50 (H-460; read-out: IC50 H-460 24 h, 24 h drug exposure, wash, another 48 hr, 3H-TdR incorporation at 72 hr, bis trifluoroacetate salt) [nM]	IC50 (MCF-7; read-out: IC50 MCF-7 24 h, 24 h drug exposure, wash, another 48 hr, 3H-TdR incorporation at 72 hr, bis trifluoroacetate salt) [nM]	IC50 (CCRF-CEM; [9]) [nM]	IC50 (CEM/dCK-; [10]) [nM]	IC50 (SF-268; [11]) [nM]	IC50 (H-460; [12]) [nM]	IC50 (MCF-7; [13]) [nM]
180	89000	680	460	460					CCC(C)(C)OC(C)OC[C@H]1OC[C@@H](n2ccc(N)nc2=O)O1 (mixture of isomers) [Compound 117, 4-AMINO-1-{2-[1-(1,1- DIMETHYL-PROPOXY)- ETHOXYMETHYL]- [1,3]DIOXOLAN-4-YL}-1H- PYRIMIDIN-2-ONE]	494							
21000	> 100000	> 100000	40000	91000					Nc1ccn([C@@H]2CO[C@H](COC3CCCCO3)O2)c(=O)n1 (stereo in doubt) [Compound 41, 4-AMINO-1-[2- (TETRAHYDRO-PYRAN-2- YLOXYMETHYL)- [1,3]DIOXOLAN-4-YL]-1H- PYRIMIDIN-2-ONE]	5							
2000	37000	10000	8900	10000					Nc1cc[n+]([C@@H]2CO[C@H](COC(c3ccccc3)(c3ccccc3)c3ccccc3)O2)c(=O)[nH]1 (stereo in doubt) [Compound 53, 4-AMINO-1-(2- TRITYLOXYMETHYL- [1,3]DIOXOLAN-4-YL)-1H- PYRIMIDIN-2-ONE]	19							
1600	> 100000	25000	7000	2000					Nc1ccn([C@@H]2COC(COCOCc3ccccc3)O2)c(=O)n1 (stereo in doubt) [Compound 56, 4-AMINO-1-(2- BENZYLOXYMETHOXYMETHYL- [1,3]DIOXOLAN-4-YL)-1H- PYRIMIDIN-2-ONE]	63							
2800	> 100000	5500	630	1800					CCOC(C)OC[C@H]1OC[C@@H](n2ccc(N)nc2=O)O1 (stereo in doubt) [Compound 91, 4-AMINO-1-[2-(1-ETHOXY- ETHOXYMETHYL)- [1,3]DIOXOLAN-4-YL]-1H- PYRIMIDIN-2-ONE]	36							
94	58000	3700	630	40					CC(CCCCN(Cc1ccccc1)C(=O)OC(C)(C)C)C(=O)Nc1ccn([C@@H]2CO[C@H](CO)O2)c(=O)n1 (stereo in doubt) [Compound 158, Benzyl-{5-[1-(2-hydroxymethyl-[1,3]dioxolan-4-yl)-2-oxo-1,2-dihydro-pyrimidin-4-ylcarbamoyl]-hexyl}-carbamic acid tert-butyl ester]	617							
2.2	82000	22	10		2.3	26	7	> 100000	Nc1ccn([C@@H]2CO[C@H](COC(=O)Oc3ccccc3)O2)c(=O)n1 [Compound 42, CARBONIC ACID 4-(4- AMINO-2-OXO-2H- PYRIMIDIN-1-YL)- [1,3]DIOXOLAN-2- YLMETHYL ESTER PHENYL ESTER]								
1600	> 100000	9000	3200	2700					CCOC(=O)Nc1ccn([C@@H]2CO[C@H](CO)O2)c(=O)n1 [Compound 45, [1-(2-HYDROXYMETHYL- [1,3]DIOXOLAN-4-YL)-2- OXO-1,2-DIHYDRO- PYRIMIDIN-4-YL]- CARBAMIC ACID ETHYL ESTER]	63							
60	> 100000	560	86	160					CCOC(=O)OC[C@H]1OC[C@@H](n2ccc(N)nc2=O)O1 [Compound 46, CARBONIC ACID 4-(4- AMINO-2-OXO-2H- PYRIMIDIN-1-YL)- [1,3]DIOXOLAN-2- YLMETHYL ESTER ETHYL ESTER]	1,667							
4.8	32000	47		19					Nc1ccn([C@@H]2CO[C@H](COC(=O)OCc3ccccc3)O2)c(=O)n1 [Compound 57, CARBONIC ACID 4-(4- AMINO-2-OXO-2H- PYRIMIDIN-1-YL)- [1,3]DIOXOLAN-2- YLMETHYL ESTER BENZYL ESTER]								
